# In patent publication EP4480497A1, “BIO-CONJUGATES FOR ONCOLOGY” (priority 2023, dated 2024):
# Tests used:
# [1] = tested on: tumour xenograft LIXF HEP3B (hepatocellular carcinoma); experiment: Orthotopic hepatocellular carcinoma xenograft, anti-tumour efficacy (Example 7); type: in vivo, NMRI nude mice; conditions: seven to eight mice per group, each substance at its one regimen
# Procedure: The experiment comprised a reference group (Group 1) dosed with phosphate buffered saline and four treatment groups (Groups 2 to 5). […] The daily dose was split, the daily dosing interval was 6 hours. Mice were either sacrificed individually when their general condition required sacrifice or at termination of the experiment. The group size at the start of dosing was seven to eight mice per group, bearing orthotopic growing LIXF HEP3B.
# [2] = Tolerability (mortality, body weight, skin) in the LIXF HEP3B xenograft study (Example 7); type: in vivo, NMRI nude mice
# Procedure: The experiment comprised a reference group (Group 1) dosed with phosphate buffered saline and four treatment groups (Groups 2 to 5). […] CROMOC62 was given subcutaneously every second week for 4 weeks at 32 (induction dosing on day 0) and 16 (day 14 and 28) mg/kg/d. Sorafenib was applied daily for 6 days in mono and combined therapy and additional 6 days (9-14) exclusively in monotherapy per oral at 200 mg/kg/d. The daily dose was split, the daily dosing interval was 6 hours. Mice were either sacrificed individually when their general condition required sacrifice or at termination of the experiment. The group size at the start of dosing was seven to eight mice per group, bearing orthotopic growing LIXF HEP3B. […] CROMOC62 was given at one dose levels (32 mg/kg on day 0 and 16 mg/kg/d on days 14 and 28) in monotherapy or in combination with sorafenib which was given at one dose level (200 mg/kg/d on days 0-5). The effect of sorafenib monotherapy was also assessed (200 mg/kg/d on day 0-5 and 9-14).
# [3] = tested on: triple negative breast tumour cells MDA-MB231; experiment: ATPlite luminescence ATP assay in MDA-MB231 cells (Example 5); type: cell-based; conditions: MDA-MB231, ATP assay after a 72h treatment, Figure 5A
# Procedure: Dose-response curves in triple negative breast tumour cells MDA-MB231 and IC50 values obtained from an ATP assay after a 72h treatment with CROMOC36, CROMOC36-DM1 and the unconjugated DM1 molecule is shown in Figure 5A. The x-axis indicates the drug concentration (nM) in log scale, and the y-axis indicates the % of cell viability as measured by the ATP levels in the treated cells relative to the DMSO control.
# The cytotoxic effect of CROMOC-DM1 conjugates was evaluated on the MDA-MB-231 cell line by means of the ATPlite Luminescence ATP Detection Assay System. The cytotoxic effect of the different CROMOC conjugated with DM-1 was compared to that of non-conjugated CROMOCs. Cells treated only with the medium were used as control. Briefly, the cells were seeded in black 96-well plates at a density of 2000 cells/well. After 24 h, cells were treated with increasing concentrations of the conjugates (range 0.02 - 500 nM in CROMOC, n=11) for 72 hours. To quantify ATP production, cells were treated following the manufacturer's instructions, and luminescence was quantified by means of a Victor Nivo multi-plate reader (Perkin Elmer, Waltham, MA, USA). The percentage of cell viability was determined as (luminescencetreated cells/luminescencecontrol cells) × 100. IC50 values were calculated using GraphPad Prism 9.0 (San Diego, CA, USA) by a nonlinear regression model.
Compound,complete remissions (number of mice) [1],partial remissions (number of mice) [1],"mortalities ([2]; LIXF HEP3B study, seven to eight mice per group, each substance at its one regimen)","maximum body weight loss ([2]; on day 16, sorafenib 12x200 mg/kg/d per oral)",IC50 [3]
CNC(=O)c1cc(Oc2ccc(NC(=O)Nc3ccc(Cl)c(C(F)(F)F)c3)cc2)ccn1 [sorafenib],five,two,One out of eight,2.5%,–
"COc1cc2cc(c1Cl)N(C)C(=O)C[C@H](OC(=O)[C@H](C)N(C)C(=O)CCS)[C@]1(C)O[C@H]1[C@H](C)[C@@H]1C[C@@](O)(NC(=O)O1)[C@H](OC)/C=C/C=C(\C)C2 [DM1, DM1 Maytansinoid]",–,–,–,–,~0.95 nM
